Measurements: a melting point compilation (Tetko et al.; mined from patent text by program, amines drawn as free bases though some values may be those of a salt)

SMILES	melting point
CCOc1cc2ncc(C#N)c(Nc3ccc(OCc4cccc(F)c4)c(Cl)c3)c2cc1NC(=O)/C=C/CN(C)C	165 to 167 °C
CCOC(=O)CCCCCCCCCCNC(=O)c1cc(O)ccc1O	72 to 74 °C
CC(C)N1CCc2ccc(NC(=N)c3cccs3)cc2C1	110 to 111 °C
O=C1NCC=C2N=CN=C12	242 to 245 °C
CC(C)(CCCCC=CCCCCC(C)(C)CC(=O)O)CC(=O)O	100 to 101 °C
COC(=O)CC(NC1CC1)=C(C(=O)OC)C(=O)C(F)(F)F	51.5 to 52.5 °C
COc1cc2oc(=O)c3c(c2cc1N)CCN(CC(C)=O)C3	178 to 180 °C
O=CNCC(=O)c1ccc(Cl)s1	111 to 113 °C
CC(NC(=O)c1cc(OCC(F)(F)F)ccc1OCC(F)(F)F)C1CCCCN1 (configuration not stated)	95 to 97 °C
COc1nc2cc([N+](=O)[O-])c(C)c(C(=O)N3CCNCC3)c2nc1OC	150 to 152 °C
O=C(O)c1cn(-c2cccc(I)c2)cn1	229 to 230 °C
CCOC(=O)C1=C(C)NC(C#N)=C(C(=O)OCC)C1c1ccccc1/C=C/C(=O)OC(C)(C)C (configuration not stated)	146 to 147 °C
CCOC(=O)c1cnn2c1c(N1CCOCC1)nc1ccccc12	142 to 143 °C
O=C(Nc1ccc(CN2CCOCC2)c2ccccc12)c1cc(F)cc(N2CCOCC2)c1	192 to 193 °C
CCOC(=O)c1ncc2[nH]c3ccccc3c2c1C	235 to 239 °C
Cc1c(C#N)sc2nc(-c3ccncc3)nc(N3CCOCC3)c12	> 250 °C
CCOC(=O)c1cnn(-c2ccc(OC)c(C#N)c2)c1	192 to 193 °C
N=C(NCC(F)(F)F)NC(N)=S	164 to 166 °C
Cc1nc2n(c(=O)c1CCN1CCC(c3noc4cc(F)ccc34)CC1)CC(O)CC2 (configuration not stated)	156 °C
COc1ccc2c(=O)c3c(OC)cccc3oc2c1OC	145 to 146 °C
O=C(OCc1ccc([N+](=O)[O-])cc1)N1CCC(O)CC1	91.5 to 94 °C
O=C(N=C1SCCN1Cc1cnc(Cl)s1)c1ccccc1	120 °C
CCC(O)CNC(=O)c1ccc(C(F)(F)F)c(N)c1 (configuration not stated)	132 to 134 °C
C#CCNC(=C[N+](=O)[O-])NCCSCc1csc(NC(=N)N)n1	82 to 90 °C

SMILES	melting point
CCc1nc(NC(=S)NCCc2ccccc2Oc2ccccc2)cs1	168 °C
O=CNc1ccc(OCCNCC(O)c2ccc(OCc3ccccc3)cc2)cc1 (configuration not stated)	152 °C
COc1cccc2c(=O)c(CSC)cn(C)c12	143 to 145 °C
Cc1ccccc1C1CCN(C2CCCCC2O)CC1 (single isomer, unassigned; (-))	116 to 118 °C
CCCCCCCOc1ccc(CCC(CO)(CCO)NC(=O)c2cc([N+](=O)[O-])cc([N+](=O)[O-])c2)cc1 (single isomer, unassigned; (+))	78 to 79 °C
CCOC(=O)c1cc(-n2c(=O)c3c(n(C)c2=O)CCC3)ccc1[N+](=O)[O-]	188 to 190 °C
CCOC(=O)C1=Cc2cccc(N3CCCC3=O)c2OCC1	64 to 66 °C
N#CCOc1cc(-c2ccccc2)[nH]n1	143 °C
CC(=Cc1ccc2cc[nH]c2c1)C(=O)O	188 to 190 °C
CC(c1ccc(O)cc1)(c1ccc(O)cc1)c1ccc(C(C)(c2ccc(O)cc2)c2ccc(O)cc2)cc1	307 °C
CCCCN1C(=O)NC(=C(C)C)C1=O	130 °C
COC(=O)/C(=N\OC1(C(=O)O)CCC1)c1ccco1	133 to 134 °C
COCCCCN1C(=O)N(c2ccc(C#N)c(C(F)(F)F)c2)C(=O)C1(C)C	80 to 81 °C
COC(=O)N1CC(=O)Nc2cccc(F)c21	170 to 172 °C
O=C(C(=O)N(CCN1CCOCC1)S(=O)(=O)C(F)(F)F)N(CCN1CCOCC1)S(=O)(=O)C(F)(F)F	62 to 64 °C
Nc1ccc(C2(OC(=O)Nc3ccccc3)NCCC(c3ccccc3)O2)cc1 (configuration not stated)	110 °C
CCOC1=NN(C)C(=O)C1	79 to 80 °C
NS(=O)(=O)c1cc2[nH]c(CO)nc2cc1Cl	247 to 250 °C
Cc1ccc(C(=O)OC(C)c2nc3c(c(=O)n(C)c(=O)n3C)n2C)c(C)n1 (configuration not stated)	160 °C
N#CN=C(NCCC(=O)O)Nc1ccc2nonc2c1	92 °C
CN1C[C@@H](C(=O)OCc2ccccc2)N(C(=O)OCc2ccccc2)C1=O	120 to 122 °C
Nc1nc(NCc2ccccc2)c2ncn(C3C=CC(CO)C3)c2n1 (configuration not stated)	174 to 176 °C
CC(C)(C)C(=O)c1c[nH]c2ncc(-c3ccc(C(=O)NC4CCCC4)s3)nc12	> 300 °C
Cc1cc2c(cc1O)C(C)(C)CC1(CC(C)(C)c3cc(OCC(N)=O)c(C)cc3O1)O2 (configuration not stated)	220 to 221 °C

Other lines, results leading:

melting point	SMILES
260 to 262 °C	Cc1nc(NC(=O)c2ccn(-c3ccccc3)c(=O)c2)sc1C(=O)NCc1ccccc1
153 to 154 °C	COC(=O)c1ccc(CCC(CS(=O)(=O)c2ccc(Oc3ccc(OC(F)(F)F)cc3)cc2)N(O)C=O)cc1 (configuration not stated)
238 °C	CN1CCN(c2ccc(-c3[nH]nc4c3C(=O)c3c(NC(=O)NNC(=O)c5cccnc5)cccc3-4)cc2)CC1
236 to 237 °C	CCC(C)(C)c1ccc2oc(-c3ccc(O)cc3)nc2c1
72 °C	CCOC(=O)NC=C(C(=O)OCC)c1ccc(Cl)cc1
156 °C	Clc1ccc(C2(Cn3ccnc3)OCC(COc3ccc(-c4ccccc4)cc3)O2)c(Cl)c1 (configuration not stated)
122 to 124 °C	CCOC(=O)Cc1ccc(NC(=O)C(COc2ccccc2)NS(=O)(=O)c2ccc(F)cc2)cc1 (racemic)
80.5 °C	CCCCCCCc1ccc(-c2cnc(-c3ccc(OCCCCCC)c(F)c3)nc2)cc1
262 to 264 °C	Cc1cc2c(-c3ccc(Br)cc3)c(CC(=O)Nc3ccc(F)cc3C(F)(F)F)c(=O)oc2cc1Cl
190 to 193 °C	O=S(=O)(c1ccccc1)c1ccc2c(c1)[C@@H](O)[C@H](Br)CCO2 (relative stereo)
175 to 178 °C	CCOC(=O)c1cnc2n(c1=O)C(C)CCC2N(C)c1ccccc1 (configuration not stated)
141 to 145 °C	O=C(Cl)c1ccccc1Nc1cccc([N+](=O)[O-])c1
252 °C	Cc1nn(CC(=O)c2ccc(Cl)cc2)c(=O)n1-c1ccc(N2CCN(c3ccc(O)cc3)CC2)cc1
229 to 232 °C	CS(=O)(=O)c1ccc(-n2cnc3ccc(-c4nnc(CC(F)(F)F)o4)cc32)cc1
212 to 218 °C	NC(=O)N1C(=O)C(=C(OC(=O)c2ccc(C(=O)OCc3ccccc3)cc2)c2cccs2)c2cc(F)c(Cl)cc21
165 °C	CCCc1cc2ccccn2c1C(=O)c1ccc(O)c(Cl)c1
159 to 160 °C	COC(Cc1ccc2oc(Cc3nc(-c4ccccc4)oc3C)cc2c1)C(=O)O (configuration not stated)
139 to 141 °C	CC1(C)CON(Cc2ccc(N3C(=O)c4cccnc4C3=O)cc2Cl)C1=O
191 °C	O=C(Nc1ccccc1C(=O)N1CCCCC1)N[C@@H](Cc1ccc(NC(=O)c2c(Cl)cccc2Cl)cc1)C(=O)O
182 to 187 °C	Cc1ccc(-c2cccc(C(=O)O)c2)cc1
128 to 129 °C	CCOC(=O)c1nc2c(Cl)cccc2n(-c2ccc(OC)cc2)c1=O
249 to 252 °C	CC1(n2cccc2)CN(c2c(F)cc3c(=O)c(C(=O)O)cn(C4CC4)c3c2F)C1
162 to 163 °C	Cc1oc(-c2ccc3ccccc3c2)nc1/C=C/c1ccc(C=O)cc1
180 to 182 °C	COc1cc(NC(=O)c2c(Cl)cccc2Cl)c2ncccc2c1
204 to 206 °C	Clc1ccc2nc(CN3CCc4ccccc4C3)[nH]c2c1

melting point	SMILES
100 °C	CCCCOC(=O)C(=O)c1cc(-c2ccc(S(C)(=O)=O)cc2)n(-c2ccccc2)c1C
181 to 182 °C	CCOCc1nc2c(N)nc3ccc(OCc4ccccc4)cc3c2n1CC(C)(C)O
> 230 °C	COc1ccc(S(=O)(=O)c2c(SC)nn3c(N)cc(C)nc23)cc1
148 to 149 °C	Cc1cn(Cc2cccc(Cl)c2)cc1C(=O)CC(=O)C(=O)O
160 to 161 °C	O=C(N[C@@H](Cc1c[nH]c2ccccc12)C(=O)O)c1cccc(Cl)c1
192 to 193 °C	CNC(=O)n1cc2c(n1)-c1ccc(Cl)cc1C(c1ccccc1F)=NC2
252 to 253 °C	CC(=O)Nc1ccc(Nc2c([N+](=O)[O-])cc(C(=O)O)cc2S(=O)(=O)Nc2ccccc2NC(C)=O)cc1
90 to 91 °C	CCCCCCCC(=O)OC(C)OC1=C(C(=O)Nc2ccccn2)N(C)S(=O)(=O)c2ccccc21 (configuration not stated)
> 250 °C	CCOC(=O)Cn1c(=O)c(=O)[nH]c2cc(C(F)(F)F)c(-n3ccc(C=NO)c3)cc21
199 to 202 °C	C=C1c2ccn3c(C)c(C)nc3c2N[C@H](c2ccccc2)[C@H]1O
183 to 184 °C	CN(C(=O)C(C#N)C(=O)c1nn(-c2ccccc2)c2c1COc1ccccc1-2)c1ccccc1 (configuration not stated)
237 to 240 °C	NC(=O)CCc1ccnc(-c2nc(=O)c3ccccc3s2)c1
177 to 179 °C	CC(=O)OCc1cc2c3ccccc3[nH]c(=O)n2n1
165 to 166 °C	CC(C)(C)OC(=O)Nc1ccc(-c2noc(COc3ccc(F)c(C(N)=O)c3F)n2)cc1
126 to 128 °C	CCOC(=O)c1cc2ccccc2n1-c1ccc(OC)c(OC)c1
242 °C	NS(=O)(=O)c1ccc(-c2cc(-c3nc(-c4ccc(C(F)(F)F)cc4)cc(C(F)F)n3)ccn2)s1
73 to 75 °C	COC(=O)c1ccc(Cl)cc1N(C)S(C)(=O)=O
110 to 112 °C	O=C(c1ccc(O)c(F)c1)N(c1ccc(O)cc1)c1ccc(F)cc1
281 °C	CCn1c(N)c(C(N)=O)c(=O)c2cnc(Nc3ccc(C(=O)N4CCN(C)CC4)cc3)nc21
55 to 57 °C	CS(=O)(=O)c1ccc(-c2cnn(CC(F)(F)F)c(=O)c2-c2ccc(Cl)cc2)cc1
125 to 127 °C	Cn1c(C(F)(F)F)cc(=O)n(-c2cc(OCCC3OCCO3)c(Cl)cc2F)c1=O
173 °C	NNc1nccc(-c2ccc(Oc3ccccc3)cc2)c1Cl
147 °C	O=C(Nc1ccc(I)cc1)c1ccccc1-c1ccc(C(F)(F)F)cc1
296 to 298 °C	OCc1ccc(-c2cc3c(NCc4cccc(Cl)c4)ncnc3[nH]2)cc1
